Measurements from ChEMBL document CHEMBL1128537, “The squalestatins: synthesis and biological activity of some C3-modified analogues; replacement of a carboxylic acid or methyl ester with an isoelectronic heterocyclic functionality” (J Med Chem, 1995).

Target: T1, Squalene synthase (Rattus norvegicus, UniProt Q02769)
T1 sequence (Q02769 whole entry): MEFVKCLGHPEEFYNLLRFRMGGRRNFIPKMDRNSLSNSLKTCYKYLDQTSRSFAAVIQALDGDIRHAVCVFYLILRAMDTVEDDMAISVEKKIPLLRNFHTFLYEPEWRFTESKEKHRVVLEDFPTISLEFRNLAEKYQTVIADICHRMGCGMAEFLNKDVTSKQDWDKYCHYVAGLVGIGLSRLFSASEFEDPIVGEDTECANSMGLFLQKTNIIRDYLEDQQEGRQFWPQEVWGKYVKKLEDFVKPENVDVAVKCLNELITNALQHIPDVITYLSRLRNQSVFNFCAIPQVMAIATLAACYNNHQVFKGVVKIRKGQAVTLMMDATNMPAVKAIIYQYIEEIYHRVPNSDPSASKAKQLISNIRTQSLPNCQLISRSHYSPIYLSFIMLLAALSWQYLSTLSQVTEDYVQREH
Test: In vitro for inhibitory activity against Squalene synthase in rat

SMILES | IC50 [nM]
C=C(CC[C@]12O[C@H](c3nnn(C)n3)[C@@](O)(C(=O)O)[C@](C(=O)O)(O1)[C@H](O)[C@H]2O)[C@@H](C(C)=O)[C@H](C)Cc1ccccc1 | 156
C=C(CC[C@]12O[C@H](C(=O)OC)[C@@](O)(C(=O)O)[C@](C(=O)O)(O1)[C@H](O)[C@H]2O)[C@@H](C(C)=O)[C@H](C)Cc1ccccc1 | 220
C=C(CC[C@]12O[C@H](c3nnn[nH]3)[C@@](O)(C(=O)O)[C@](C(=O)O)(O1)[C@H](O)[C@H]2O)[C@@H](C(C)=O)[C@H](C)Cc1ccccc1 | 25
C=C(CC[C@]12O[C@H](c3csc(C)n3)[C@@](O)(C(=O)O)[C@](C(=O)O)(O1)[C@H](OC(=O)/C=C/[C@@H](C)C[C@@H](C)CC)[C@H]2O)[C@@H](C(C)=O)[C@H](C)Cc1ccccc1 | 357
C=C(CC[C@]12O[C@H](c3csc(C)n3)[C@@](O)(C(=O)O)[C@](C(=O)O)(O1)[C@H](O)[C@H]2O)[C@@H](C(C)=O)[C@H](C)Cc1ccccc1 | 2880
C=C(CC[C@]12O[C@H](c3nnc(NC)o3)[C@@](O)(C(=O)O)[C@](C(=O)O)(O1)[C@H](OC(=O)/C=C/[C@@H](C)C[C@@H](C)CC)[C@H]2O)[C@@H](C(C)=O)[C@H](C)Cc1ccccc1 | 10
C=C(CC[C@]12O[C@H](c3csc(NC)n3)[C@@](O)(C(=O)O)[C@](C(=O)O)(O1)[C@H](O)[C@H]2O)[C@@H](C(C)=O)[C@H](C)Cc1ccccc1 | 1180
C=C(CC[C@]12O[C@H](c3nnc(C)[nH]3)[C@@](O)(C(=O)O)[C@](C(=O)O)(O1)[C@H](O)[C@H]2O)[C@@H](C(C)=O)[C@H](C)Cc1ccccc1 | 312
C=C(CC[C@]12O[C@H](c3nc(C)no3)[C@@](O)(C(=O)O)[C@](C(=O)O)(O1)[C@H](OC(=O)/C=C/[C@@H](C)C[C@@H](C)CC)[C@H]2O)[C@@H](C(C)=O)[C@H](C)Cc1ccccc1 | 72
C=C(CC[C@]12O[C@H](c3nnn[nH]3)[C@@](O)(C(=O)O)[C@](C(=O)O)(O1)[C@H](OC(=O)/C=C/[C@@H](C)C[C@@H](C)CC)[C@H]2O)[C@@H](C(C)=O)[C@H](C)Cc1ccccc1 | 4
C=C(CC[C@]12O[C@H](C(=O)OC)[C@@](O)(C(=O)O)[C@](C(=O)O)(O1)[C@H](OC(=O)/C=C/[C@@H](C)C[C@@H](C)CC)[C@H]2O)[C@@H](C(C)=O)[C@H](C)Cc1ccccc1 | 7
C=C(CC[C@]12O[C@H](c3nnc(S)n3C)[C@@](O)(C(=O)O)[C@](C(=O)O)(O1)[C@H](OC(=O)/C=C/[C@@H](C)C[C@@H](C)CC)[C@H]2O)[C@@H](C(C)=O)[C@H](C)Cc1ccccc1 | 172
C=C(CC[C@]12O[C@H](c3csc(N)n3)[C@@](O)(C(=O)O)[C@](C(=O)O)(O1)[C@H](OC(=O)/C=C/[C@@H](C)C[C@@H](C)CC)[C@H]2O)[C@@H](C(C)=O)[C@H](C)Cc1ccccc1 | 63

Second part, the compound after the results:

IC50 [nM] | SMILES
310 | C=C(CC[C@]12O[C@H](c3nc(C)no3)[C@@](O)(C(=O)O)[C@](C(=O)O)(O1)[C@H](O)[C@H]2O)[C@@H](C(C)=O)[C@H](C)Cc1ccccc1
442 | C=C(CC[C@]12O[C@H](c3nnnn3C)[C@@](O)(C(=O)O)[C@](C(=O)O)(O1)[C@H](O)[C@H]2O)[C@@H](C(C)=O)[C@H](C)Cc1ccccc1
505 | C=C(CC[C@]12O[C@H](c3cscn3)[C@@](O)(C(=O)O)[C@](C(=O)O)(O1)[C@H](O)[C@H]2O)[C@@H](C(C)=O)[C@H](C)Cc1ccccc1
1940 | C=C(CC[C@]12O[C@H](c3n[nH]c(=S)n3C)[C@@](O)(C(=O)O)[C@](C(=O)O)(O1)[C@H](O)[C@H]2O)[C@@H](C(C)=O)[C@H](C)Cc1ccccc1
92 | C=C(CC[C@]12O[C@H](c3cscn3)[C@@](O)(C(=O)O)[C@](C(=O)O)(O1)[C@H](OC(=O)/C=C/[C@@H](C)C[C@@H](C)CC)[C@H]2O)[C@@H](C(C)=O)[C@H](C)Cc1ccccc1
43 | C=C(CC[C@]12O[C@H](c3nnn(C)n3)[C@@](O)(C(=O)O)[C@](C(=O)O)(O1)[C@H](OC(=O)/C=C/[C@@H](C)C[C@@H](C)CC)[C@H]2O)[C@@H](C(C)=O)[C@H](C)Cc1ccccc1
146 | C=C(CC[C@]12O[C@H](c3csc(NC)n3)[C@@](O)(C(=O)O)[C@](C(=O)O)(O1)[C@H](OC(=O)/C=C/[C@@H](C)C[C@@H](C)CC)[C@H]2O)[C@@H](C(C)=O)[C@H](C)Cc1ccccc1
57 | C=C(CC[C@]12O[C@H](c3nnnn3C)[C@@](O)(C(=O)O)[C@](C(=O)O)(O1)[C@H](OC(=O)/C=C/[C@@H](C)C[C@@H](C)CC)[C@H]2O)[C@@H](C(C)=O)[C@H](C)Cc1ccccc1
785 | C=C(CC[C@]12O[C@H](c3cnc[nH]3)[C@@](O)(C(=O)O)[C@](C(=O)O)(O1)[C@H](O)[C@H]2O)[C@@H](C(C)=O)[C@H](C)Cc1ccccc1
147 | C=C(CC[C@]12O[C@H](c3nnc(NC)o3)[C@@](O)(C(=O)O)[C@](C(=O)O)(O1)[C@H](O)[C@H]2O)[C@@H](C(C)=O)[C@H](C)Cc1ccccc1
